For 18 molecules, Ki results are on record in patent publication US8952157B2, “Apoptosis-inducing agents for the treatment of cancer and immune and autoimmune diseases” (AbbVie Inc., priority 2008, dated 2015).

One may read the Ki as the equilibrium dissociation constant of an inhibitor or competing ligand from its target.

Molecules are shown by their SMILES.

This experiment has as its target GST-Bcl-2 (Homo sapiens (Human), UniProt P10415). Description: Time Resolved-Fluorescence Resonance Energy Transfer (TR-FRET) Bcl-2 binding assay. The conditions noted are these: GST-Bcl-2 1 nM, F-Bak peptide probe 100 nM, Tb-anti-GST antibody 1 nM; Ki by Wang's equation. How it is done: Determination of the utility of compounds having Formula (I) as binders to and inhibitors of anti-apoptotic Bcl-2 proteins was performed using the Time Resolved-Fluorescence Resonance Energy Transfer (TR-FRET) Assay. Tb-anti-GST antibody was purchased from Invitrogen (Catalog No. PV4216).
Representative compounds were serially diluted in dimethyl sulfoxide (DMSO) starting at 50 μM (2× starting concentration; 10% DMSO) and 10 μL were transferred into a 384-well plate. The samples are then mixed on a shaker for 1 minute and incubated for an additional 3 hours at room temperature. For each assay, the probe/antibody and protein/probe/antibody were included on each assay plate as negative and positive controls, respectively. Fluorescence was measured on the Envision (Perkin Elmer) using a 340/35 nm excitation filter and 520/525 (F-Bak peptide) and 495/510 nm (Tb-labeled anti-Histidine antibody) emission filters.
The samples were then mixed on a shaker for 1 minute and incubated for an additional 3 hours at room temperature. For each assay, the probe/antibody and protein/probe/antibody were included on each assay plate as negative and positive controls, respectively. Fluorescence was measured on the Envision (Perkin Elmer) using a 340/35 nm excitation filter and 520/525 (F-Bak peptide) and 495/510 nm (Tb-labeled anti-Histidine antibody) emission filters.
The inhibition constant (Ki) is the dissociation constant of an enzyme-inhibitor complex or a protein/small molecule complex, wherein the small molecule is inhibiting binding of one protein to another protein. So a large Ki value indicates a low binding affinity and a small Ki value indicates a high binding affinity.

GST-Bcl-2, sequence (P10415 whole entry): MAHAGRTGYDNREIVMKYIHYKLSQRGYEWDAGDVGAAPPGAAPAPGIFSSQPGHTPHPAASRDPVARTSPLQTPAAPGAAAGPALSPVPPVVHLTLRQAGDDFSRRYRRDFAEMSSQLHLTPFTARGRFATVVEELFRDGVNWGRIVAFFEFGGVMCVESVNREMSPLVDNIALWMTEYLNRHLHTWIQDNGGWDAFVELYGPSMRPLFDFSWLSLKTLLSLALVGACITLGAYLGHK

The molecule `CC1(C)CCC(CN2CCN(c3ccc(C(=O)NS(=O)(=O)c4ccc(NN5CCOCC5)c([N+](=O)[O-])c4)c(Oc4cccc(Cl)c4)c3)CC2)=C(c2ccc(Cl)cc2)C1` [Example 253, 2-(3-chlorophenoxy)-4-(4-{[2-(4-chlorophenyl)-4,4-dimethylcyclohex-1-en-1-yl]methyl}piperazin-1-yl)-N-{[4-(morpholin-4-ylamino)-3-nitrophenyl]sulfonyl}benzamide] displayed a Ki of 50 pM. Consider `CN1CCC(Nc2ccc(S(=O)(=O)NC(=O)c3ccc(N4CCN(CC5=C(c6ccc(Cl)cc6)CC(C)(C)CC5)CC4)cc3Oc3ccc(O)cc3Cl)cc2[N+](=O)[O-])CC1` [Example 207, 2-(2-chloro-4-hydroxyphenoxy)-4-(4-{[2-(4-chlorophenyl)-4,4-dimethylcyclohex-1-en-1-yl]methyl}piperazin-1-yl)-N-({4-[(1-methylpiperidin-4-yl)amino]-3-nitrophenyl}sulfonyl)benzamide], for which the affinity corresponds to a Ki of 74 pM.

For the molecule `CC1(C)CCC(CN2CCN(c3ccc(C(=O)NS(=O)(=O)c4ccc(NCC5CCOCC5)c([N+](=O)[O-])c4)c(Oc4cnc(N)c(C5CC5)c4)c3)CC2)=C(c2ccc(Cl)cc2)C1` [Example 366, 2-[(6-amino-5-cyclopropylpyridin-3-yl)oxy]-4-(4-{[2-(4-chlorophenyl)-4,4-dimethylcyclohex-1-en-1-yl]methyl}piperazin-1-yl)-N-({3-nitro-4-[(tetrahydro-2H-pyran-4-ylmethyl)amino]phenyl}sulfonyl)benzamide], affinity was put at a Ki of 6050 pM. As to `COc1ccc(Cn2nnc3c(Oc4cc(N5CCN(CC6=C(c7ccc(Cl)cc7)CC(C)(C)CC6)CC5)ccc4C(=O)NS(=O)(=O)c4ccc(NCC5CCOCC5)c([N+](=O)[O-])c4)cccc32)cc1` [Example 342, 4-(4-{[2-(4-chlorophenyl)-4,4-dimethylcyclohex-1-en-1-yl]methyl}piperazin-1-yl)-2-{[1-(4-methoxybenzyl)-1H-1,2,3-benzotriazol-4-yl]oxy}-N-({3-nitro-4-[(tetrahydro-2H-pyran-4-ylmethyl)amino]phenyl}sulfonyl)benzamide], the Ki worked out at 3340 pM. `COc1ccccc1Oc1cc(N2CCN(CC3=C(c4ccc(Cl)cc4)CC(C)(C)CC3)CC2)ccc1C(=O)NS(=O)(=O)c1ccc(NC2CCN(C)CC2)c([N+](=O)[O-])c1` [Example 180, 4-(4-{[2-(4-chlorophenyl)-4,4-dimethylcyclohex-1-en-1-yl]methyl}piperazin-1-yl)-2-(2-methoxyphenoxy)-N-({4-[(1-methylpiperidin-4-yl)amino]-3-nitrophenyl}sulfonyl)benzamide] came in with a Ki of 112 pM. Under `CC1(C)CCC(CN2CCN(c3ccc(C(=O)NS(=O)(=O)c4ccc(NC5CCN(C6CC6)CC5)c([N+](=O)[O-])c4)c(Oc4cccc(F)c4F)c3)CC2)=C(c2ccc(Cl)cc2)C1` [Example 121, 4-(4-{[2-(4-chlorophenyl)-4,4-dimethylcyclohex-1-en-1-yl]methyl}piperazin-1-yl)-N-({4-[(1-cyclopropylpiperidin-4-yl)amino]-3-nitrophenyl}sulfonyl)-2-(2,3-difluorophenoxy)benzamide] stands 81 pM.

`CN1CCC(Nc2ccc(S(=O)(=O)NC(=O)c3ccc(N4CCN(CC5=C(c6ccc(Cl)cc6)CC(C)(C)CC5)CC4)cc3Oc3cccc(Cl)c3)cc2S(=O)(=O)C(F)(F)F)CC1` [Example 131, 2-(3-chlorophenoxy)-4-(4-{[2-(4-chlorophenyl)-4,4-dimethylcyclohex-1-en-1-yl]methyl}piperazin-1-yl)-N-({4-[(1-methylpiperidin-4-yl)amino]-3-[(trifluoromethyl)sulfonyl]phenyl}sulfonyl)benzamide] displayed a Ki of 66 pM. Under `CN1CCC(Nc2ccc(S(=O)(=O)NC(=O)c3ccc(N4CCN(CC5=C(c6ccc(Cl)cc6)CC(C)(C)CC5)CC4)cc3Oc3ccccc3Cl)cc2S(=O)(=O)C(F)(F)F)CC1` [Example 59, 2-(2-chlorophenoxy)-4-(4-((2-(4-chlorophenyl)-4,4-dimethylcyclohex-1-en-1-yl)methyl)piperazin-1-yl)-N-((4-((1-methylpiperidin-4-yl)amino)-3-((trifluoromethyl)sulfonyl)phenyl)sulfonyl)benzamide] stands 184 pM; under `CN1CCC(Nc2ccc(S(=O)(=O)NC(=O)c3ccc(N4CCN(CC5=C(c6ccc(Cl)cc6)CC(C)(C)CC5)CC4)cc3Oc3cccc(C(F)(F)F)c3)cc2[N+](=O)[O-])CC1` [Example 57, 4-(4-((2-(4-chlorophenyl)-4,4-dimethylcyclohex-1-en-1-yl)methyl)piperazin-1-yl)-N-((4-((1-methylpiperidin-4-yl)amino)-3-nitrophenyl)sulfonyl)-2-(3-(trifluoromethyl)phenoxy)benzamide], 147 pM. Regarding `O=C(NS(=O)(=O)c1ccc(NCC2CCOCC2)c([N+](=O)[O-])c1)c1ccc(N2CCN(Cc3cc(CCN4CCCC4)ccc3-c3ccc(Cl)cc3)CC2)cc1Oc1cccc(Cl)c1` [Example 53, 2-(3-chlorophenoxy)-4-(4-((4′-chloro-4-(2-pyrrolidin-1-ylethyl)-1,1′-biphenyl-2-yl)methyl)piperazin-1-yl)-N-((3-nitro-4-((tetrahydro-2H-pyran-4-ylmethyl)amino)phenyl)sulfonyl)benzamide], affinity was put at a Ki of 77 pM. Under `CN1CCC(Nc2ccc(S(=O)(=O)NC(=O)c3ccc(N4CCN(CC5=C(c6ccc(Cl)cc6)CC(C)(C)CC5)CC4)cc3Oc3cccc(Cl)c3)cc2[N+](=O)[O-])CC1` [Example 36, 2-(3-chlorophenoxy)-4-(4-((2-(4-chlorophenyl)-4,4-dimethylcyclohex-1-en-1-yl)methyl)piperazin-1-yl)-N-((4-((1-methylpiperidin-4-yl)amino)-3-nitrophenyl)sulfonyl)benzamide] stands 70 pM; under `CN(C)CCCNc1ccc(S(=O)(=O)NC(=O)c2ccc(N3CCN(Cc4ccccc4-c4ccc(Cl)cc4)CC3)cc2Oc2cccc3c2ccn3C)cc1[N+](=O)[O-]` [Example 16, 4-(4-((4′-chloro-1,1′-biphenyl-2-yl)methyl)piperazin-1-yl)-N-((4-((3-(dimethylamino)propyl)amino)-3-nitrophenyl)sulfonyl)-2-((1-methyl-1H-indol-4-yl)oxy)benzamide], 3040 pM; under `CN1CCC(Nc2ccc(S(=O)(=O)NC(=O)c3ccc(N4CCN(CC5=C(c6ccc(Cl)cc6)CC(C)(C)CC5)CC4)cc3Oc3cccc(Cl)c3Cl)cc2[N+](=O)[O-])CC1` [Example 54, 4-(4-((2-(4-chlorophenyl)-4,4-dimethylcyclohex-1-en-1-yl)methyl)piperazin-1-yl)-2-(2,3-dichlorophenoxy)-N-((4-((1-methylpiperidin-4-yl)amino)-3-nitrophenyl)sulfonyl)benzamide], 82 pM. With `CC1(C)CCC(CN2CCN(c3ccc(C(=O)NS(=O)(=O)c4ccc(NCC5CCOCC5)c([N+](=O)[O-])c4)c(Oc4ccc5[nH]cc(CCN)c5c4)c3)CC2)=C(c2ccc(Cl)cc2)C1` [Example 299, 2-{[3-(2-aminoethyl)-1H-indol-5-yl]oxy}-4-(4-{[2-(4-chlorophenyl)-4,4-dimethylcyclohex-1-en-1-yl]methyl}piperazin-1-yl)-N-({3-nitro-4-[(tetrahydro-2H-pyran-4-ylmethyl)amino]phenyl}sulfonyl)benzamide], affinity was put at a Ki of 51700 pM. This Ki lies about 630-fold higher than the previous one.

The molecule `CN1CC[C@H](Nc2ccc(S(=O)(=O)NC(=O)c3ccc(N4CCN(CC5=C(c6ccc(Cl)cc6)CC(C)(C)CC5)CC4)cc3Oc3cccc(Cl)c3)cc2[N+](=O)[O-])C1` [Example 194, 2-(3-chlorophenoxy)-4-(4-{[2-(4-chlorophenyl)-4,4-dimethylcyclohex-1-en-1-yl]methyl}piperazin-1-yl)-N-[(4-{[(3S)-1-methylpyrrolidin-3-yl]amino}-3-nitrophenyl)sulfonyl]benzamide] displayed a Ki of 317 pM. This Ki is about 160-fold lower than that of the molecule before. The molecule `CN1CCC(Nc2ccc(S(=O)(=O)NC(=O)c3ccc(N4CCN(CC5=C(c6ccc(Cl)cc6)CC(C)(C)CC5)CC4)cc3Oc3cccc(F)c3F)cc2[N+](=O)[O-])CC1` [Example 45, 4-(4-((2-(4-chlorophenyl)-4,4-dimethylcyclohex-1-en-1-yl)methyl)piperazin-1-yl)-2-(2,3-difluorophenoxy)-N-((4-((1-methylpiperidin-4-yl)amino)-3-nitrophenyl)sulfonyl)benzamide] showed a Ki of 47 pM. In turn, `CC1(C)CCC(CN2CCN(c3ccc(C(=O)NS(=O)(=O)c4cnc(OCCN5CCOCC5)c(C#N)c4)c(Oc4cc5cc[nH]c5cc4F)c3)CC2)=C(c2ccc(Cl)cc2)C1` [Example 310, 4-(4-{[2-(4-chlorophenyl)-4,4-dimethylcyclohex-1-en-1-yl]methyl}piperazin-1-yl)-N-{[5-cyano-6-(2-morpholin-4-ylethoxy)pyridin-3-yl]sulfonyl}-2-[(6-fluoro-1H-indol-5-yl)oxy]benzamide] showed an inhibition constant Ki of 155 pM. `CN1CCC(Nc2ccc(S(=O)(=O)NC(=O)c3ccc(N4CCN(CC5=C(c6ccc(Cl)cc6)CCCCC5)CC4)cc3Oc3ccccc3Cl)cc2[N+](=O)[O-])CC1` [Example 56, 2-(2-chlorophenoxy)-4-(4-((2-(4-chlorophenyl)cyclohept-1-en-1-yl)methyl)piperazin-1-yl)-N-((4-((1-methylpiperidin-4-yl)amino)-3-nitrophenyl)sulfonyl)benzamide] came in with a Ki of 106 pM.
